Marks after values point to notes of the source that are not given here.
Experiment: Fatty acid concentration and composition of plasma lipid subfractions (GC) of Compound A-treated DIO mice
Type: in vivo, mouse
Conditions: DIO mouse plasma, 30 mg/kg, GC
Experimental: FIG. 16(b) provides fatty acid composition of total plasma and each of the 4 plasma lipid subfractions of vehicle treated (WT) and 30 mg/kg Compound A-treated WT DIO mice (WT+A). (a-b) n=3 samples per group (each sample pooled from 2 mice). (a) Data are shown as minimum to maximum. t-test *P<0.05, **P<0.01, ***P<0.001.

[1] = Phospholipids, mean % composition
[2] = Total lipids, mean % composition
[3] = Triglycerides, mean % composition

SMILES: COc1ccn2c(=O)c(-c3cnn(CC(F)(F)C(F)(F)F)c3)c(C(F)(F)F)nc2c1 [Compound A, 8-methoxy-3-(1-(2,2,3,3,3-pentafluoropropyl)-1H-pyrazol-4-yl)-2-(trifluoromethyl)-4H-pyrido[1,2-a]pyrimidin-4-one]
- C16:1n7t composition, Phospholipids [1]: 0.05%
- C18:0 composition, Phospholipids [1]: 14.4*** %
- C18:1n9 composition, Phospholipids [1]: 12.3** %
- C18:1t composition, Phospholipids [1]: 0.18%
- C18:2n6 composition, Phospholipids [1]: 19.0%
- C18:2n6t composition, Phospholipids [1]: 0.22** %
- C18:3n3 composition, Phospholipids [1]: 0.05%
- C18:3n6 composition, Phospholipids [1]: 0.2* %
- C20:0 composition, Phospholipids [1]: 0.07* %
- C20:1n9 composition, Phospholipids [1]: 0.28%
- C20:2n6 composition, Phospholipids [1]: 0.43* %
- C20:3n6 composition, Phospholipids [1]: 18.2*** %
- C20:4n6 composition, Phospholipids [1]: 1.49*** %
- C20:5n3 composition, Phospholipids [1]: 0.06* %
- C22:0 composition, Phospholipids [1]: 0.08%
- C22:4n6 composition, Phospholipids [1]: 0.10*** %
- C22:5n3 composition, Phospholipids [1]: 0.61%
- C22:5n6 composition, Phospholipids [1]: 0.09** %
- C22:6n3 composition, Phospholipids [1]: 3.33*** %
- C24:0 composition, Phospholipids [1]: 0.04%
- C24:1n9 composition, Phospholipids [1]: 0.16%
- C14:0 concentration, Total (Total lipids, mean): 7.7 µg/mL
- C16:0 concentration, Total (Total lipids, mean): 635 µg/mL
- C16:1n7 concentration, Total (Total lipids, mean): 41.4 µg/mL
- C18:0 concentration, Total (Total lipids, mean): 285** μg mL^−1
- C18:1n9 concentration, Total (Total lipids, mean): 478 µg/mL
- C18:1t concentration, Total (Total lipids, mean): 3.6 µg/mL
- C18:2n6 concentration, Total (Total lipids, mean): 870 µg/mL
- C18:2n6t concentration, Total (Total lipids, mean): 6.0 µg/mL
- C18:3n3 concentration, Total (Total lipids, mean): 5.9** μg mL^−1
- C18:3n6 concentration, Total (Total lipids, mean): 23.3** μg mL^−1
- C20:0 concentration, Total (Total lipids, mean): 2.3** μg mL^−1
- C20:1n9 concentration, Total (Total lipids, mean): 8.4 µg/mL
- C20:3n6 concentration, Total (Total lipids, mean): 465*** μg mL^−1
- C20:4n6 concentration, Total (Total lipids, mean): 92.3** μg mL^−1
- C20:5n3 concentration, Total (Total lipids, mean): 2.7** μg mL^−1
- C22:0 concentration, Total (Total lipids, mean): 3.3** μg mL^−1
- C22:4n6 concentration, Total (Total lipids, mean): 2.1*** μg mL^−1
- C22:5n3 concentration, Total (Total lipids, mean): 2.8*** μg mL^−1
- C22:5n6 concentration, Total (Total lipids, mean): 2.4*** μg mL^−1
- C22:6n3 concentration, Total (Total lipids, mean): 98.5** μg mL^−1
- C24:1n9 concentration, Total (Total lipids, mean): 6.9 µg/mL
- Total fatty acids concentration, Total (Total lipids, mean): 3058* μg mL^−1
- C14:0 composition, Total [2]: 0.25%
- C16:0 composition, Total [2]: 20.8%
- C16:1n7 composition, Total [2]: 1.35%
- C16:1n7t composition, Total [2]: 0.1%
- C18:0 composition, Total [2]: 9.3%
- C18:1n9 composition, Total [2]: 15.7%
- C18:1t composition, Total [2]: 0.12%
- C18:2n6 composition, Total [2]: 28.5%
- C18:2n6t composition, Total [2]: 0.2%
- C18:3n3 composition, Total [2]: 0.19%
- C18:3n6 composition, Total [2]: 0.76%
- C20:0 composition, Total [2]: 0.08%
- C20:1n9 composition, Total [2]: 0.27%
- C20:2n6 composition, Total [2]: 0.32%
- C20:3n6 composition, Total [2]: 15.2%
- C20:4n6 composition, Total [2]: 3.01%
- C20:5n3 composition, Total [2]: 0.09*** %
- C22:0 composition, Total [2]: 0.11%
- C22:4n6 composition, Total [2]: 0.07*** %
- C22:5n3 composition, Total [2]: 0.09*** %
- C22:5n6 composition, Total [2]: 0.08*** %
- C22:6n3 composition, Total [2]: 3.22%
- C24:0 composition, Total [2]: 0.06%
- C24:1n9 composition, Total [2]: 0.23** %
- C14:0 concentration, Triglycerides (Triglycerides, mean): 26.7 µg/mL
- C16:0 concentration, Triglycerides (Triglycerides, mean): 135 µg/mL
- C16:1n7 concentration, Triglycerides (Triglycerides, mean): 6.2 µg/mL
- C16:1n7t concentration, Triglycerides (Triglycerides, mean): 0.7 µg/mL
- C18:0 concentration, Triglycerides (Triglycerides, mean): 80.4 µg/mL
- C18:1n9 concentration, Triglycerides (Triglycerides, mean): 161* μg mL^−1
- C18:1t concentration, Triglycerides (Triglycerides, mean): 6.1 µg/mL
- C18:2n6 concentration, Triglycerides (Triglycerides, mean): 42.6** μg mL^−1
- C18:2n6t concentration, Triglycerides (Triglycerides, mean): 9.0 µg/mL
- C18:3n3 concentration, Triglycerides (Triglycerides, mean): 1.8 µg/mL
- C18:3n6 concentration, Triglycerides (Triglycerides, mean): 0.7 µg/mL
- C20:0 concentration, Triglycerides (Triglycerides, mean): 1.6 µg/mL
- C20:1n9 concentration, Triglycerides (Triglycerides, mean): 5.6* μg mL^−1
- C20:2n6 concentration, Triglycerides (Triglycerides, mean): 1.7 µg/mL
- C20:3n6 concentration, Triglycerides (Triglycerides, mean): 8.3 µg/mL
- C20:4n6 concentration, Triglycerides (Triglycerides, mean): 2.5*** μg mL^−1
- C20:5n3 concentration, Triglycerides (Triglycerides, mean): 3.7** μg mL^−1
- C22:0 concentration, Triglycerides (Triglycerides, mean): 3.5 µg/mL
- C22:4n6 concentration, Triglycerides (Triglycerides, mean): 2.5* μg mL^−1
- C22:5n3 concentration, Triglycerides (Triglycerides, mean): 49.9* μg mL^−1
- C22:5n6 concentration, Triglycerides (Triglycerides, mean): 2.5 µg/mL
- C22:6n3 concentration, Triglycerides (Triglycerides, mean): 0.6** μg mL^−1
- C24:0 concentration, Triglycerides (Triglycerides, mean): 1.2 µg/mL
- C24:1n9 concentration, Triglycerides (Triglycerides, mean): 2.3 µg/mL
- Total fatty acids concentration, Triglycerides (Triglycerides, mean): 556* μg mL^−1
- C14:0 composition, Triglycerides [3]: 4.77* %
- C16:0 composition, Triglycerides [3]: 24.2%
- C16:1n7 composition, Triglycerides [3]: 1.10%
- C16:1n7t composition, Triglycerides [3]: 0.12%
- C18:0 composition, Triglycerides [3]: 14.5%
- C18:1n9 composition, Triglycerides [3]: 29.0%
- C18:1t composition, Triglycerides [3]: 1.09%
- C18:2n6 composition, Triglycerides [3]: 7.68** %
- C18:2n6t composition, Triglycerides [3]: 1.64* %
- C18:3n3 composition, Triglycerides [3]: 0.33%
- C18:3n6 composition, Triglycerides [3]: 0.13%
- C20:0 composition, Triglycerides [3]: 0.28%
- C20:1n9 composition, Triglycerides [3]: 1.01%
- C20:2n6 composition, Triglycerides [3]: 0.31%
- C20:3n6 composition, Triglycerides [3]: 1.5%
- C20:4n6 composition, Triglycerides [3]: 0.46*** %
- C20:5n3 composition, Triglycerides [3]: 0.67%
- C22:0 composition, Triglycerides [3]: 0.63%
- C22:4n6 composition, Triglycerides [3]: 0.45%
- C22:5n3 composition, Triglycerides [3]: 8.98*** %
- C22:5n6 composition, Triglycerides [3]: 0.45* %
- C22:6n3 composition, Triglycerides [3]: 0.12*** %
- C24:0 composition, Triglycerides [3]: 0.23%
- C24:1n9 composition, Triglycerides [3]: 0.41%
- EPA/AA, Cholesterol ester (Table 5.5) (ratio, Cholesterol ester): 0.039*
- EPA/AA, Cholesterol ester (Table 5.6) (ratio, Cholesterol ester): 0.039*
- EPA/AA, Free fatty acids (Table 5.5) (ratio, Free fatty acids): 2.94*
- EPA/AA, Free fatty acids (Table 5.6) (ratio, Free fatty acids): 2.94*
- EPA/AA, Phospholipids (Table 5.5) (ratio, Phospholipids): 0.038*
- EPA/AA, Phospholipids (Table 5.6) (ratio, Phospholipids): 0.038
- EPA/AA, Total (Table 5.5) (ratio, Total lipids): 0.030**
- EPA/AA, Total (Table 5.6) (ratio, Total lipids): 0.030**
- EPA/AA, Triglycerides (Table 5.5) (ratio, Triglycerides): 1.51**
- EPA/AA, Triglycerides (Table 5.6) (ratio, Triglycerides): 1.51**
